Tests used:
NLRP3 inflammasome = assay: IL-1β secretion in BMDMs, LPS + Nigericin; assay type: cell-based, mouse; conditions: FIG. 5A; for inhibition of IL-1β secretion: LPS + Nigericin
Method: This example illustrates a comparative study of CLM-022 and MCC950 in inhibiting NLRP3 inflammasome activity in mouse and human macrophages.
Bone marrow-derived macrophages (BMDMs) were treated with LPS (100 ng/ml) for 3 hours to induce the expression of inflammatory genes, including TNF-α, NLRP3, and pro-IL-1β. Subsequently, the BMDMs were treated with CLM-022 or MCC950 in a dose range of 0-10 μM for 30 minutes. Then, to fully activate NLRP3-dependent inflammasome activity and cytokine secretion, Nigericin (10 μM) was added to the BMDMs for an additional 30 minutes.

THP-1 cells = assay: LDH release (NLRP3 inflammasome-induced cytotoxicity) in THP-1 cells; assay type: cell-based, human; conditions: for inhibition of inflammasome-induced pyroptosis: human THP-1 macrophages, overall comparison with MCC950, FIG. 7A-7C
From the text: Pyroptosis, a pro-inflammatory form of cell death, is triggered by the activation of NLRP3 inflammasome components (GSDMD and Caspase-1), leading to the release of pro-inflammatory cytokines IL-1β and IL-18, as well as damage-associated molecular patterns (DAMPs). This process elicits a cascade of inflammatory responses, which can persist if dysregulated in affected tissues. Given the significant inhibitory potential of CLM-022 against NLRP3 inflammasome and IL-1β secretion, it was proposed that CLM-022 could effectively enhance cell viability by inhibiting pyroptosis in the context of inflammation and inflammasome activation. This example illustrates a comparative study of the abilities of CLM-022 and MCC950 to protect THP-1 cells from inflammasome-induced pyroptosis.
After LPS and Nigericin treatment, THP-1 cells were treated with either CLM-022 or MCC950 over a dosage range of 0 μM to 10 μM and cell viability was determined by impermeant live/dead staining dye and flow cytometric analysis. Additionally, NLRP3 inflammasome-induced cytotoxicity was investigated by measuring the level of LDH in the conditioned media after the CLM-022 and MCC950 treatments. Further, Western blotting of samples from the THP-1 cell viability assays was carried out to determine levels of the pyroptosis-mediating molecules, GSDMD and Caspase-1.

SMILES: CC1=C(O)C(=O)C=C2C1=CC=C1[C@@]2(C)CC[C@@]2(C)[C@@H]3C[C@](C)(N(C)C(=O)C(=O)N(C)C)CC[C@]3(C)CC[C@]12C [Compound 22, N′-[(2R,4aS,6aR,6aS,14aS,14bR)-10-hydroxy-2,4a,6a,6a,9,14a-hexamethyl-11-oxo-1,3,4,5,6,13,14,14b-octahydropicen-2-yl]-N,N,N′-trimethyl-oxamide]
- inhibition of IL-1β secretion (NLRP3 inflammasome): outperforms the benchmark inflammasome inhibitor compound, MCC950, in inhibiting IL-1β secretion (but not TNF-α secretion)
- inhibition of IL-1β secretion (NLRP3 inflammasome; listed as CLM-022): significant inhibition of IL-1β secretion
- IC50 (NLRP3 inflammasome; Mus musculus, BMDM, LPS (100 ng/ml) + Nigericin (10 μM), 0-10 μM, read-out: IC50 for inhibition of IL-1β secretion (normalized)): 9 nM
- IC50 (THP-1 cells; Homo sapiens, THP-1, LPS and Nigericin, 0 μM to 10 μM, FIG. 7B, read-out: IC50 for LDH release (normalized)): 12.4 nM
- inhibition of LDH release (THP-1 cells; THP-1, LPS and Nigericin, FIG. 7B): significantly inhibited release of LDH
- higher potency relative to MCC950 in preventing pyroptosis (THP-1 cells; from LDH release IC50 values, FIG. 7B): 10 fold
- inhibition of inflammasome-induced pyroptosis (THP-1 cells): greater capacity to inhibit inflammasome-induced pyroptosis in human THP-1 macrophages
- inhibition of inflammasome-induced pyroptosis (THP-1 cells; listed as CLM-022): greater capacity than the benchmark molecule, MCC950, to inhibit inflammasome-induced pyroptosis in human THP-1 macrophages
